Reference: the supplement of paper PMC10307832

Experiments:
Assay in all cases: relative viability (nuclei count vs DMSO), 5 days (fraction); higher = more cells survive
Tivantinib + Crizotinib = compound: O=C1NC(=O)[C@@H](c2cn3c4c(cccc24)CCC3)[C@@H]1c1c[nH]c2ccccc12 [Tivantinib] + C[C@@H](Oc1cc(-c2cnn(C3CCNCC3)c2)cnc1N)c1c(Cl)ccc(F)c1Cl [Crizotinib] (partner 1 µM)
Procedure, shortened: (§1)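 After 5 days of treatment, lung cancer cells in 1536-well plates were fixed and stained in a single step (final 0.05% Triton X-100, 1% formaldehyde, 1 ug/ml Hoechst) and their nuclei counted on 4× images. Treatment had been applied by pin tool the day after seeding as one drug alone or as a fixed anchor-drug dose with five library-drug doses (not always all listed) in √10 steps. Relative viability is the nuclei count of treated wells divided by that of vehicle wells, and values are medians of duplicate plates.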

Crenolanib + Dasatinib = compound: CC1(COc2ccc3c(c2)ncn3-c2ccc3cccc(N4CCC(N)CC4)c3n2)COC1 [Crenolanib] + Cc1nc(Nc2ncc(C(=O)Nc3c(C)cccc3Cl)s2)cc(N2CCN(CCO)CC2)n1 [Dasatinib] (partner 0.075 µM)
Procedure, shortened: as §1

Tivantinib + Olaparib = compound: O=C1NC(=O)[C@@H](c2cn3c4c(cccc24)CCC3)[C@@H]1c1c[nH]c2ccccc12 [Tivantinib] + O=C(c1cc(Cc2n[nH]c(=O)c3ccccc23)ccc1F)N1CCN(C(=O)C2CC2)CC1 [Olaparib] (partner 8 µM)
Procedure, shortened: as §1

Crenolanib + Lapatinib = compound: CC1(COc2ccc3c(c2)ncn3-c2ccc3cccc(N4CCC(N)CC4)c3n2)COC1 [Crenolanib] + CS(=O)(=O)CCNCc1ccc(-c2ccc3ncnc(Nc4ccc(OCc5cccc(F)c5)c(Cl)c4)c3c2)o1 [Lapatinib] (partner 2 µM)
Procedure, shortened: as §1

Cell Line	relative viability (Tivantinib + Crizotinib; first compound 0.01 µM)	relative viability (Tivantinib + Crizotinib; first compound 0.03162 µM)	relative viability (Tivantinib + Crizotinib; first compound 0.1 µM)	relative viability (Tivantinib + Crizotinib; first compound 0.3162 µM)	relative viability (Crenolanib + Dasatinib; first compound 0.01 µM)	relative viability (Crenolanib + Dasatinib; first compound 0.03162 µM)	relative viability (Crenolanib + Dasatinib; first compound 0.1 µM)	relative viability (Crenolanib + Dasatinib; first compound 0.3162 µM)	relative viability (Crenolanib + Dasatinib; first compound 1 µM)	relative viability (Tivantinib + Olaparib; first compound 0.01 µM)	relative viability (Tivantinib + Olaparib; first compound 0.03162 µM)	relative viability (Tivantinib + Olaparib; first compound 0.1 µM)	relative viability (Tivantinib + Olaparib; first compound 0.3162 µM)	relative viability (Crenolanib + Lapatinib; first compound 0.01 µM)	relative viability (Crenolanib + Lapatinib; first compound 0.03162 µM)	relative viability (Crenolanib + Lapatinib; first compound 0.1 µM)	relative viability (Crenolanib + Lapatinib; first compound 0.3162 µM)	relative viability (Crenolanib + Lapatinib; first compound 1 µM)
201T	1.01	1.01	1.04	1.02	0.603	0.602	0.569	0.528	0.614	0.837	0.794	0.817	0.831	1	1.02	1.03	0.965	1.01
A549	0.894	0.81	0.713	0.638	–	–	–	–	–	0.204	0.253	0.301	0.214	1.12	1.1	0.948	1.23	1.1
A-427	0.893	1.02	0.821	0.859	0.693	0.723	0.699	0.688	0.64	0.761	0.794	0.723	0.685	0.996	0.998	1.04	1.06	1.06
ABC-1	1.39	1.14	0.91	1.5	0.566	0.718	0.538	0.608	0.564	0.875	1.17	0.626	0.955	1.23	1.02	1.28	1.1	1.23
BEN	0.897	0.72	0.672	0.681	0.281	0.256	0.363	0.345	0.323	1.05	1.01	0.961	0.857	0.808	0.552	0.746	0.685	0.68
CAL-12T	0.711	0.774	0.714	0.36	0.455	0.51	0.498	0.615	0.514	0.731	0.643	0.677	0.613	0.73	0.618	0.661	0.703	0.821
COR-L23	0.677	0.662	0.611	0.844	0.497	0.466	0.475	0.54	0.417	0.339	0.417	0.328	0.326	0.952	1.13	0.836	0.931	0.987
COR-L 105	0.725	0.769	0.787	0.435	0.453	0.315	0.383	0.42	0.411	0.739	0.665	0.729	0.585	0.353	0.403	0.345	0.37	0.335
Calu-6	0.795	0.799	0.665	0.826	–	–	–	–	–	0.611	0.572	–	0.564	0.996	1.02	1.05	1.27	1.06
ChaGo-K-1	1.1	1.2	1.11	0.939	0.6	0.579	0.617	0.585	0.604	0.401	0.41	0.409	0.398	–	–	–	–	–
EBC-1	0.184	0.189	0.195	0.198	–	–	–	–	–	0.708	0.681	0.781	0.711	0.212	0.213	0.22	0.202	0.215
EKVX	0.944	0.965	0.712	0.242	0.519	0.473	0.561	0.591	0.512	0.812	0.893	0.834	0.296	0.2	0.241	0.186	0.222	0.239
EMC-BAC-2	0.833	0.728	0.751	0.657	0.369	0.312	0.315	0.313	0.307	0.45	0.477	0.485	0.582	0.912	0.862	0.882	0.931	0.81
EPLC-272H	1.04	0.963	0.785	0.82	0.35	0.349	0.317	0.391	0.532	0.97	0.698	0.657	0.257	–	0.877	0.722	0.977	1.02
H3255	0.905	0.922	0.763	–	0.323	0.266	0.376	0.422	0.338	0.599	0.588	0.57	–	0.271	0.218	0.241	0.233	0.24
HARA	1.07	1.01	1.01	0.878	0.234	0.256	0.3	0.246	0.292	1.02	0.49	0.735	0.732	0.711	0.81	0.645	0.602	0.684
HCC-15	0.722	0.791	0.731	0.853	0.645	0.678	0.66	0.701	0.545	0.725	0.756	0.643	0.917	0.829	0.895	0.807	0.83	0.793
HCC-44	0.766	0.915	0.773	0.787	–	–	–	–	–	0.961	0.963	1.01	0.941	1.02	0.997	0.901	0.999	0.905
HCC-78	0.341	0.321	0.317	0.206	0.389	0.314	–	0.354	0.275	0.99	0.767	0.709	0.62	0.138	0.637	0.705	0.71	0.467
HCC-366	0.641	0.559	0.43	0.672	0.655	0.662	0.593	0.648	0.519	0.278	0.35	0.308	0.346	0.954	1.09	0.916	1.31	0.915
HCC-827	0.92	1.01	0.91	0.779	0.338	0.33	0.398	0.366	0.396	0.661	0.681	0.673	–	0.163	0.188	0.16	0.217	0.191

Cell Line	relative viability (Tivantinib + Crizotinib; first compound 0.01 µM)	relative viability (Tivantinib + Crizotinib; first compound 0.03162 µM)	relative viability (Tivantinib + Crizotinib; first compound 0.1 µM)	relative viability (Tivantinib + Crizotinib; first compound 0.3162 µM)	relative viability (Crenolanib + Dasatinib; first compound 0.01 µM)	relative viability (Crenolanib + Dasatinib; first compound 0.03162 µM)	relative viability (Crenolanib + Dasatinib; first compound 0.1 µM)	relative viability (Crenolanib + Dasatinib; first compound 0.3162 µM)	relative viability (Crenolanib + Dasatinib; first compound 1 µM)	relative viability (Tivantinib + Olaparib; first compound 0.01 µM)	relative viability (Tivantinib + Olaparib; first compound 0.03162 µM)	relative viability (Tivantinib + Olaparib; first compound 0.1 µM)	relative viability (Tivantinib + Olaparib; first compound 0.3162 µM)	relative viability (Crenolanib + Lapatinib; first compound 0.01 µM)	relative viability (Crenolanib + Lapatinib; first compound 0.03162 µM)	relative viability (Crenolanib + Lapatinib; first compound 0.1 µM)	relative viability (Crenolanib + Lapatinib; first compound 0.3162 µM)	relative viability (Crenolanib + Lapatinib; first compound 1 µM)
HOP-62	0.828	–	0.972	1.03	0.658	0.703	0.578	0.769	0.684	0.463	0.451	0.329	0.477	0.869	1	0.991	1.08	0.834
IA-LM	0.962	0.857	0.677	1.08	–	–	–	–	–	0.907	–	0.789	0.809	0.741	0.951	0.732	0.978	1.51
LC-2-ad	0.515	0.411	0.501	0.411	0.707	0.555	0.486	0.741	0.533	0.684	0.685	0.692	0.706	1	0.922	0.982	1.05	0.992
LCLC-97TM1	0.451	0.305	0.38	0.318	0.877	0.883	0.857	0.949	0.67	0.39	0.414	0.455	0.407	0.895	0.861	0.748	0.959	0.784
LCLC-103H	0.996	1.04	1.05	0.941	0.444	0.454	0.477	0.457	0.428	0.713	0.802	0.722	0.778	–	–	–	–	–
LK-2	0.2	–	0.223	0.218	0.378	0.253	0.382	0.231	0.249	0.903	0.639	0.73	0.687	0.942	0.812	0.935	0.938	0.851
LOU-NH91	0.746	0.729	0.705	0.53	0.598	0.53	0.527	0.559	0.593	0.861	0.888	0.9	0.715	0.798	0.742	0.774	0.737	0.772
LU99A	0.516	0.593	0.576	0.413	0.492	0.579	0.669	0.581	0.522	0.272	0.267	0.251	0.254	1.08	0.988	1	1.03	0.955
LXF-289	0.792	0.819	0.777	0.827	0.194	0.228	0.253	0.237	0.229	1.02	1.05	1.01	1.02	0.887	0.918	0.889	0.908	0.838
NCI-H23	0.511	0.615	0.512	0.416	0.804	0.778	0.71	0.848	0.643	0.357	0.335	0.387	0.348	1.04	1.16	0.977	1.22	0.992
NCI-H441	0.847	0.725	0.546	0.801	0.555	0.669	0.601	0.681	0.578	0.482	0.552	0.58	0.744	–	–	–	–	–
NCI-H522	–	–	–	–	0.987	1.01	0.899	0.854	0.975	0.639	0.579	0.698	0.517	–	–	–	–	–
NCI-H1299	0.686	0.972	0.587	0.93	–	–	–	–	–	0.941	0.933	1.01	0.93	0.928	1.01	0.905	0.862	0.887
NCI-H1395	–	–	–	–	0.406	0.387	0.39	0.37	0.403	0.513	0.469	0.44	0.482	1.02	1.06	0.915	0.942	0.971
NCI-H1563	0.851	0.893	0.822	0.884	0.452	0.41	0.472	0.464	0.452	–	–	–	–	0.818	0.97	0.937	0.998	0.849
NCI-H1648	–	–	–	–	–	–	–	–	–	–	0.889	0.611	0.528	–	–	–	–	–
NCI-H1703	0.747	1.01	0.535	0.255	–	–	–	–	–	0.524	0.444	0.527	0.309	1.14	0.713	0.262	0.257	0.189
NCI-H1793	–	–	–	–	0.365	0.412	0.4	0.404	0.418	0.982	0.761	0.819	0.45	0.767	0.799	0.475	0.855	0.645
NCI-H2342	–	–	–	–	0.338	0.304	0.307	0.338	0.316	0.513	0.423	0.392	0.282	–	–	–	–	–
SW 900	–	–	–	–	0.719	0.725	0.595	0.581	0.404	0.939	1.03	0.809	0.742	–	–	–	–	–
